According to US8999661B2, “Compositions for detecting cell death and methods of use thereof” (Dana-Farber Cancer Institute, Inc., priority 2008, dated 2015):

How the values were obtained:
HeLa cells [1] = assay: FACS staining of camptothecin-treated apoptotic HeLa cells; assay type: cell-based; settings: for percent apoptotic cells as measured with the probe: camptothecin; for cell staining over time (FACS): 12 h, 24 h, annexin binding buffer; for uptake by apoptotic HeLa cells (FACS) / uptake by control untreated HeLa cells (FACS): FIG. 6
Description: HeLa cells (5×10^5 in 10 cm plates) maintained in DMEM with 10% FBS were contacted with 5 μM camptothecin to induce apoptosis. Cell staining by FITC-labeled Annexin V (Abcam, Cambridge, Mass.) or Cy5.5-labeled chicken LDH (1 μL) prepared as described in Example 1, was measured by fluorescence-activated cell sorting (FACS) analysis (with cells in annexin binding buffer (Abcam)) 12 h, 24 h, and 48 h later. Untreated HeLa cells served as negative controls.
Staining by Annexin V is known to require the presence of calcium. […] HeLa cells treated with camptothecin to induce apoptosis as in Example 9 were stained with FITC-labeled Annexin V (Abcam, Cambridge, Mass.) or Cy5.5-labeled chicken LDH in calcium-containing Annexin buffer or in calcium-free PBS. Stained cells were analyzed by FACS analysis as in Example 9.
HeLa cells (5×10^5 in 10 cm plates) maintained in DMEM with 10% FBS were contacted with 5 μM camptothecin to induce apoptosis. Cell staining was done in the media: (i) annexin buffer, (ii) DMEM supplemented with 1% FBS; (iii) DMEM supplemented with 2% FBS; (iii) DMEM supplemented with 5% FBS; (iv) DMEM supplemented with 10% FBS. For cell staining FITC-labeled Annexin V (Abcam, Cambridge, Mass.) or Cy5.5-labeled chicken LDH (1 μL) prepared as described in Example 1, was used to for FACS analysis (cells in annexin binding buffer (Abcam)) 48 h later. Untreated HeLa cells served as negative controls. […]

apoptotic cells [2] = assay: Homogeneous multiwell apoptosis assay in normal growth medium; assay type: cell-based; settings: e.g., RPMI with 10% FBS, flow cytometry or High-Content Microscopy
apoptotic cells [3] = assay: Staining requirements (temperature, calcium) of cLDHB and Annexin V; assay type: cell-based
Description: To determine if cLDHB is actively transported into cells, staining was performed at room temperature and at 4° C.
A major limitation of Annexin V staining is the requirement for supra-physiological concentrations of calcium (Tait, J. F., D. F. Gibson, and C. Smith, Anal Biochem, 2004. 329: 112-9). To determine whether cLDHB staining required calcium, Annexin V and cLDHB staining was performed in PBS (without calcium or magnesium) or in Annexin Binding Buffer (with 2.5 mM calcium).

THP-1 cells [4] = assay: Competition for Annexin V and LDHB binding to apoptotic THP-1 cells; assay type: cell-based; settings: probe 0.1 μM; for staining of apoptotic cells in the presence of excess unlabeled Annexin V: 5- and 10-fold excess
Description: To determine whether physiological levels of LDH may preclude binding of a LDH probe, the ability of excess unlabeled cLDHB and Annexin V to compete for binding of apoptotic cells by FITC conjugated Annexin V and cLDHB was assessed.
Apoptosis was induced in THP-1 cells with LAQ824 (50 nM, 18 hrs), and cells were stained with either Annexin V-FITC or cLDHB-FITC at a final concentration of 0.1 μM. For competition, staining was performed in the presence of excess unlabeled LDHB or Annexin V.

HeLa cells [5] = assay: Confocal microscopy of stained apoptotic HeLa cells; assay type: cell-based
[6] = test system: Ku812-Luc+ (BCR-ABL+CML blast crisis) cells; assay: In vivo imaging of chemotherapy-induced apoptosis (AMN107); set-up: species or system mice; settings: 100 mg/kg IP; day 5
Description: Subcutaneous tumors were established using Ku812-Luc+ (BCR-ABL+CML blast crisis) cells in NCr nude mice. When tumors were ˜1 cm, mice underwent bioluminescence imaging (BLI) to determine baseline tumor burden, followed by treatment with either AMN107 (nilotinib) at 100 mg/kg intraperitoneally (IP), or with vehicle. After 3 doses, animals were injected with 20 μg of LDH-Alexa750. Fluorescence imaging (FL) was performed 24 and 48 hrs after probe injection (day 4 and 5 of treatment) and BLI was repeated on day 5 of treatment (FIG. 9A).

RS4;11 cells = assay: FACS staining of RS4;11 cells treated with NVP-LAQ824; assay type: cell-based; settings: RS4;11, 50 nM NVP-LAQ824, 24 h
Description: RS4;11 is a MLL-AF4 fusion transcript-positive t(4;11) pre-B ALL cell line that is highly resistant to chemotherapy and radiation. In this experiment RS4;11 cells (1×10^6) were treated with 50 nM NVP-LAQ824 (Novartis Pharma, Basel, Switzerland) for 24 h and then contacted with FITC-labeled Annexin V (Abcam, Cambridge, Mass.) or Cy5.5-labeled chicken LDH and analyzed by FACS as in Example 9. NVP-LAQ824 is a potent hydroxamic acid-derived histone deacetylase inhibitor that induces apoptosis in nanomolar concentrations in myeloid leukemia cell lines, multiple myeloma, and patient samples. Catley L et al. (2003) Blood 102:2615-22.
In a related experiment, RS4;11 cells were treated with 50 nM NVP-LAQ824 in culture media for 24 h and then stained with FITC-labeled Annexin V or A680-labeled human LDH-B in either Annexin buffer or culture media. Apoptosis was measured by FACS analysis. Results indicated a significant difference between 11-12 percent apoptotic cells as measured with FITC-labeled Annexin V in Annexin buffer versus only 4 percent apoptotic cells as measured with FITC-labeled Annexin V in culture media. In contrast, results indicated 11-12 percent apoptotic cells as measured with A680-labeled LDH-B, whether in Annexin buffer or culture media.

THP-1 cells [7] = assay: Staining of THP-1 cells treated with HDAC inhibitor LAQ824; assay type: cell-based; settings: THP-1, LAQ824 50 nM, 18 hrs
Description: To correlate cLDHB staining with other measures of apoptosis, a fluorescent probe that binds to activated caspases (pan-caspase-FLICA, Immunochemistry Tech) was used. THP-1 cells were treated with the HDAC inhibitor LAQ824 (50 nM, 18 hrs) to induce apoptosis.
Similarly, we asked whether the […] proteins performed comparably to purified recombinant LDH.

hepatocyte apoptosis = assay: In vivo NIR imaging of fulminant hepatic failure (anti-Fas antibody); set-up: species or system mice; settings: liver region; 10 μg probe; 25 hrs after probe injection
Description: This model was used to compare LDH to Annexin V for near infrared (NIR) imaging of apoptosis. Alexa750-NHS was conjugated to Annexin V (Biovision) and chicken LDHB (XpressBio) at a labeling ratio of 2:1 per mole of protein based on prior optimization. A total of 10 male NCr nude mice were injected with 5 μg of anti-Fas antibody (Jo2, Pharmingen), and 10 animals were injected with 5 μg of an isotype-matched control antibody. Two hours later, mice were injected with 10 μg of either LDH-Alexa750 or Annexin V-Alexa750. Mice underwent NIR fluorescence imaging (IVIS Spectrum, Caliper) 25 hrs after probe injection (FIG. 8A). After spectral unmixing and background subtraction (Living Images software package), regions of interest were used to quantify fluorescence localized to the liver region (FIG. 8A), as indicated with arrowheads.

[8] = calcium-containing Annexin V buffer

For “Annexin V: fluorescently labeled Annexin V probe used as comparator; FITC-labeled in Example 12 [reference compound]”, the “percent apoptotic cells as measured with the probe” value (from here on “percent apoptotic cells as measured”) (HeLa cells [1]; FBS 10 percent, HeLa, 48 h) was “about 15%”, the “percent apoptotic cells as measured” value (HeLa cells [1]; FBS zero, HeLa, 48 h) was “about 50%” and the “change of staining with increasing amounts of FBS (FACS)” value (HeLa cells [1]; HeLa treated with camptothecin) was “significantly decreased”. For the same molecule, the “staining / quantification of apoptosis with probe added directly to normal growth medium” value (apoptotic cells [2]) was “No Annexin V staining” and the “staining in PBS (without calcium or magnesium) compared to Annexin Binding Buffer (2.5 mM calcium)” value (apoptotic cells [3]) was “significantly decreased”.

“LDHB: LDHB not fused to GST, served as a positive control” was tested, and the “uptake by / staining of apoptotic cells (FACS)” value (HeLa cells [1]; HeLa, 5 μM camptothecin, 48 h, FIG. 5) was “stained apoptotic cells”.

“FITC-labeled chicken LDH: chicken LDH-B labeled with fluorescein isothiocyanate” was tested, and the “staining of apoptotic cells in the presence of excess unlabeled Annexin V” value (THP-1 cells [4]) was “no effect”, the “staining of apoptotic cells in the presence of excess unlabeled LDHB” value (THP-1 cells [4]; up to 100-(10 μM) and 350-fold (35 μM) excess) was “only marginally altered” and the “staining pattern (confocal microscopy)” value (HeLa cells [5]) was “punctate cytoplasmic”.

`Cc1cn(-c2cc(NC(=O)c3ccc(C)c(Nc4nccc(-c5cccnc5)n4)c3)cc(C(F)(F)F)c2)cn1` [AMN107, nilotinib] was tested, and the “difference between treated animals and vehicle-treated controls by BLI” value [6] was 2 log and the “tumor response by BLI” value [6] was “tumor regression”.

For “Cy5.5-labeled chicken LDH: chicken lactate dehydrogenase (LDH-B) labeled with Cy5.5 N-hydroxysuccinimide ester as described in Example 1”, the “apoptosis over background levels as measured with the probe” value (RS4;11 cells) was “only a mild increase”, the “staining compared to FITC-Annexin V” value (RS4;11 cells) was “comparable” and the “proportion of apoptotic cells detected compared to FITC-labeled Annexin V” value (HeLa cells [1]; HeLa, 5 μM camptothecin) was “comparable”. The “cell staining over time (FACS)” value (HeLa cells [1]; HeLa, 5 μM camptothecin, 48 h) was “progressively stained positive”, the “staining of apoptotic cells (FACS)” value (HeLa cells [1]; [8]) was “strongly and equally positive” and the “staining of apoptotic cells (FACS)” value (HeLa cells [1]; calcium-free PBS) was “strongly and equally positive”. For the same molecule, the “percent apoptotic cells as measured” value (HeLa cells [1]; over the range FBS zero to 10 percent, HeLa, 48 h) was “about 65%” and the “staining pattern (confocal microscopy)” value (HeLa cells [5]) was “punctate cytoplasmic”.

With “Cy5.5-labeled Annexin V: Cy5.5-labeled Annexin V (Abcam) [reference compound]” the “staining pattern (confocal microscopy)” value (HeLa cells [5]) was “membranous”.

“FITC-labeled Annexin V: FITC-labeled Annexin V (Abcam), phosphatidylserine-binding apoptosis probe [reference compound]” was tested, and the “apoptosis over background levels as measured with the probe” value (RS4;11 cells) was “only a mild increase”, the “apoptotic cells as measured with the probe” value (RS4;11 cells; staining in culture media) was 4% and the “staining of apoptotic cells in the presence of excess unlabeled Annexin V” value (THP-1 cells [4]) was “abrogated”. The “cell staining over time (FACS)” value (HeLa cells [1]; HeLa, 5 μM camptothecin, 48 h) was “progressively stained positive”, the “staining of apoptotic cells (FACS)” value (HeLa cells [1]; [8]) was “strongly positive” and the “staining of apoptotic cells (FACS)” value (HeLa cells [1]; calcium-free PBS) was “essentially not at all”. The “staining pattern (confocal microscopy)” value (HeLa cells [5]) was “membranous”.

With “cLDHB-A680: chicken LDHB labeled with A680 (Alexa 680)” the “coincidence of staining with caspase activation (pan-caspase-FLICA)” value (THP-1 cells [7]) was “entirely coincident”.

B1: labeled MDH: Cy5.5-labeled E. coli malate dehydrogenase (Alexa 680-labeled per FIG. 6 legend) (conjugate, UniProt P61889 1-312, looked up)
Malate dehydrogenase: MKVAVLGAAGGIGQALALLLKTQLPSGSELSLYDIAPVTPGVAVDLSHIPTAVKIKGFSGEDATPALEGADVVLISAGVARKPGMDRSDLFNVNAGIVKNLVQQVAKTCPKACIGIITNPVNTTVAIAAEVLKKAGVYDKNKLFGVTTLDIIRSNTFVAELKGKQPGEVEVPVIGGHSGVTILPLLSQVPGVSFTEQEVADLTKRIQNAGTEVVEAKAGGGSATLSMGQAAARFGLSLVRALQGEQGVVECAYVEGDGQYARFFSQPLLLGKNGVEERKSIGTLSAFEQNALEGMLDTLKKDIALGEEFVNK
modifications: Cy5.5 or Alexa 680 label
B1 was tested, and the “uptake by apoptotic HeLa cells (FACS)” value (HeLa cells [1]; 5 μM camptothecin) was “taken up” and the “uptake by control untreated HeLa cells (FACS)” value (HeLa cells [1]) was “not by control untreated HeLa cells”.

B2: labeled ADH: Cy5.5-labeled yeast alcohol dehydrogenase (Alexa 680-labeled per FIG. 6 legend) (conjugate, UniProt P00330 2-348, looked up)
Alcohol dehydrogenase 1: SIPETQKGVIFYESHGKLEYKDIPVPKPKANELLINVKYSGVCHTDLHAWHGDWPLPVKLPLVGGHEGAGVVVGMGENVKGWKIGDYAGIKWLNGSCMACEYCELGNESNCPHADLSGYTHDGSFQQYATADAVQAAHIPQGTDLAQVAPILCAGITVYKALKSANLMAGHWVAISGAAGGLGSLAVQYAKAMGYRVLGIDGGEGKEELFRSIGGEVFIDFTKEKDIVGAVLKATDGGAHGVINVSVSEAAIEASTRYVRANGTTVLVGMPAGAKCCSDVFNQVVKSISIVGSYVGNRADTREALDFFARGLVKSPIKVVGLSTLPEIYEKMEKGQIVGRYVVDTSK
modifications: Cy5.5 or Alexa 680 label
B2 was tested, and the “uptake by apoptotic HeLa cells (FACS)” value (HeLa cells [1]; 5 μM camptothecin) was “taken up” and the “uptake by control untreated HeLa cells (FACS)” value (HeLa cells [1]) was “not by control untreated HeLa cells”.

B3: Annexin V-Alexa750: Annexin V (Biovision) conjugated to Alexa750-NHS at a labeling ratio of 2:1 (conjugate, UniProt P08758 2-320, looked up)
Annexin A5: AQVLRGTVTDFPGFDERADAETLRKAMKGLGTDEESILTLLTSRSNAQRQEISAAFKTLFGRDLLDDLKSELTGKFEKLIVALMKPSRLYDAYELKHALKGAGTNEKVLTEIIASRTPEELRAIKQVYEEEYGSSLEDDVVGDTSGYYQRMLVVLLQANRDPDAGIDEAQVEQDAQALFQAGELKWGTDEEKFITIFGTRSVSHLRKVFDKYMTISGFQIEETIDRETSGNLEQLLLAVVKSIRSIPAYLAETLYYAMKGAGTDDHTLIRVMVSRSEIDLFNIRKEFRKNFATSLYSMIKGDTSGDYKKALLLLCGEDD
modifications: Alexa Fluor 750 label
B3 was tested, and the “mean signal intensity (photons/sec/ROI) of anti-Fas antibody treated animals above IgG control antibody treated animals” value (hepatocyte apoptosis) was 1.8 fold.
